Source: the supplement of paper PMC5908809

Columns and labels:
[1] = tested on: normal primary NK cells, pool 1 (3 donors) (IL-2 2.5 ng/mL); assay: drug sensitivity score (DSS) (DSS units); higher = more sensitive; extreme values may be limits of the assay; details: 72 h
IMC-1 (IL-2 20 ng/mL) [2] = assay: as above; details: 72 h
NK-YS (IL-2 2.5 ng/mL) [3] = assay: as above; details: 72 h
YT (IL-2 2.5 ng/mL) [4] = assay: as above; details: 72 h
DERL-7 (IL-2 2.5 ng/mL) [5] = assay: as above; details: 72 h
[6] = tested on: normal primary NK cells, pool 2 (3 donors) (IL-2 2.5 ng/mL); assay: as above; details: 72 h
NK-92 (IL-2 2.5 ng/mL) [7] = assay: as above; details: 72 h
KHYG-1 (IL-2 2.5 ng/mL) [8] = assay: as above; details: 72 h
[9] = tested on: normal primary NK cells, pool 1 (3 donors), resting (IL-2 0 ng/mL); assay: as above; details: 72 h
[10] = tested on: normal primary NK cells, pool 3 (3 donors) (IL-2 2.5 ng/mL); assay: as above; details: 72 h
NKL (IL-2 2.5 ng/mL) [11] = assay: as above; details: 72 h
KAI3 (IL-2 2.5 ng/mL) [12] = assay: as above; details: 72 h
SNK-6 (IL-2 2.5 ng/mL) [13] = assay: as above; details: 72 h
[14] = tested on: normal NK cells expanded with K562-aAPC; assay: as above; details: 72 h; IL-2 2.5 ng/mL
Description: (§1)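 Drug sensitivity and resistance testing on K562-aAPC-expanded normal NK cells: 5 concentrations (10-fold steps over a 10,000-fold range), 72 h at 37 °C, viability by CellTiter-Glo normalised to DMSO and benzethonium chloride controls; DSS from the fitted curve.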

[15] = tested on: normal NK cells expanded with K562-aAPC; assay: percent inhibition of viability; higher = more inhibition; details: 72 h, IL-2 2.5 ng/mL
Description: as §1

[16] = tested on: normal primary NK cells, pool 1 (3 donors) (IL-2 2.5 ng/mL); assay: as above; details: 72 h
IMC-1 (IL-2 20 ng/mL) [17] = assay: as above; details: 72 h
NK-YS (IL-2 2.5 ng/mL) [18] = assay: as above; details: 72 h
YT (IL-2 2.5 ng/mL) [19] = assay: as above; details: 72 h
DERL-7 (IL-2 2.5 ng/mL) [20] = assay: as above; details: 72 h
[21] = tested on: normal primary NK cells, pool 2 (3 donors) (IL-2 2.5 ng/mL); assay: as above; details: 72 h
NK-92 (IL-2 2.5 ng/mL) [22] = assay: as above; details: 72 h
KHYG-1 (IL-2 2.5 ng/mL) [23] = assay: as above; details: 72 h
[24] = tested on: normal primary NK cells, pool 1 (3 donors), resting (IL-2 0 ng/mL); assay: as above; details: 72 h
[25] = tested on: normal primary NK cells, pool 3 (3 donors) (IL-2 2.5 ng/mL); assay: as above; details: 72 h
NKL (IL-2 2.5 ng/mL) [26] = assay: as above; details: 72 h
KAI3 (IL-2 2.5 ng/mL) [27] = assay: as above; details: 72 h
SNK-6 (IL-2 2.5 ng/mL) [28] = assay: as above; details: 72 h

CC(C)c1cc(-c2n[nH]c(=O)n2-c2ccc3c(ccn3C)c2)c(O)cc1O [Ganetespib] (max concentration tested 1000 nM)
Details | drug sensitivity score
DERL-7 (IL-2 2.5 ng/mL) [5] | 26.6
IMC-1 (IL-2 20 ng/mL) [2] | 17.9
KAI3 (IL-2 2.5 ng/mL) [12] | 23.3
KHYG-1 (IL-2 2.5 ng/mL) [8] | 18.7
NK-92 (IL-2 2.5 ng/mL) [7] | 21.4
NK-YS (IL-2 2.5 ng/mL) [3] | 22.8
NKL (IL-2 2.5 ng/mL) [11] | 22
SNK-6 (IL-2 2.5 ng/mL) [13] | 16.5
YT (IL-2 2.5 ng/mL) [4] | 17.1
[1] | 23.5
[6] | 22.3
[9] | 14.4
[10] | 20.1
[14] | 24.6

percent inhibition of viability [%]
Details | 0.1 nM | 1 nM | 10 nM | 100 nM | 1000 nM
DERL-7 (IL-2 2.5 ng/mL) [20] | -4.38 | 6.84 | 68.9 | 101 | 101
IMC-1 (IL-2 20 ng/mL) [17] | -2.6 | -2.72 | -0.68 | 99.7 | 101
KAI3 (IL-2 2.5 ng/mL) [27] | -0.77 | -8.2 | 40.1 | 101 | 107
KHYG-1 (IL-2 2.5 ng/mL) [23] | 1.44 | 4.41 | 5.54 | 99.7 | 109
NK-92 (IL-2 2.5 ng/mL) [22] | -6.96 | -10.1 | 22.3 | 97.8 | 105
NK-YS (IL-2 2.5 ng/mL) [18] | -2.27 | -6.04 | 33.9 | 101 | 107
NKL (IL-2 2.5 ng/mL) [26] | -3.59 | 1.19 | 45.1 | 90 | 92.9
SNK-6 (IL-2 2.5 ng/mL) [28] | -23.6 | -15.5 | 5.21 | 86.1 | 88.1
YT (IL-2 2.5 ng/mL) [19] | -3.81 | -4.31 | 1.84 | 93.2 | 99.1
[15] | -7.81 | -3.48 | 56 | 98.1 | 99.3
[16] | 1.74 | 4.42 | 62.4 | 86.4 | 86.4
[21] | -4.93 | 1.18 | 65.2 | 77.6 | 79.6
[24] | 2.3 | -0.42 | 39.1 | 41.8 | 52.9
[25] | -14.5 | -11 | 45.4 | 78.5 | 79.9

Nc1nccc(-c2c(-c3ccc(F)cc3)ncn2C2CCCCC2)n1 (max concentration tested 10000 nM)
Details | drug sensitivity score
DERL-7 (IL-2 2.5 ng/mL) [5] | 2.07
IMC-1 (IL-2 20 ng/mL) [2] | 0
KAI3 (IL-2 2.5 ng/mL) [12] | 25.2
KHYG-1 (IL-2 2.5 ng/mL) [8] | 1.98
NK-92 (IL-2 2.5 ng/mL) [7] | 6.29
NK-YS (IL-2 2.5 ng/mL) [3] | 4.44
NKL (IL-2 2.5 ng/mL) [11] | 0
SNK-6 (IL-2 2.5 ng/mL) [13] | 4.81
YT (IL-2 2.5 ng/mL) [4] | 3.49
[1] | 3.09
[6] | 4.42
[9] | 2.37
[10] | 1.17
[14] | 0.68

percent inhibition of viability [%]
Details | 1 nM | 10 nM | 100 nM | 1000 nM | 10000 nM
DERL-7 (IL-2 2.5 ng/mL) [20] | -3.56 | -1.12 | -1.49 | 5.28 | 29
IMC-1 (IL-2 20 ng/mL) [17] | 0.25 | 1.14 | 3.57 | 3.69 | 3.74
KAI3 (IL-2 2.5 ng/mL) [27] | 3.53 | 23.9 | 60.5 | 90.9 | 66.9
KHYG-1 (IL-2 2.5 ng/mL) [23] | 4.98 | -0.44 | 4.5 | 3.42 | 31.7
NK-92 (IL-2 2.5 ng/mL) [22] | 4.97 | -2.54 | 18.6 | 23.2 | 49.9
NK-YS (IL-2 2.5 ng/mL) [18] | -3.68 | -2.41 | 3.69 | 14.9 | 47.6
NKL (IL-2 2.5 ng/mL) [26] | -2.84 | 0.96 | 7.22 | -3.94 | -2.33
SNK-6 (IL-2 2.5 ng/mL) [28] | -26.2 | -7.24 | -4.71 | 7.8 | 64.1
YT (IL-2 2.5 ng/mL) [19] | 4.57 | 3.69 | 9.54 | 15.5 | 35.5
[15] | -4.54 | -4.14 | 0.36 | -0.71 | 21.9
[16] | -3.43 | -7.84 | 9.95 | 16.4 | 17.9
[21] | -8.96 | -5.75 | 14 | 14.7 | 21.2
[24] | -19.6 | -29.4 | 3.3 | 5.1 | 33.2
[25] | -7.45 | -3.42 | 2.49 | 11.6 | 17
